Experimental data published in US20220387455A1, “TREATMENT OF MODERATE TO SEVERE INFLUENZA” (priority 2015, published 2022).
Where a name gives a salt, the structure may show the parent alone. Read-outs that look alike come from different tables or passages of the source.

Legend:
[1] = Example 1: clinical safety of single inhaled doses in healthy adults; format: in vivo, human
Method: In a controlled clinical environment, 38 healthy adults received single doses of either 0.9% saline solution as placebo or up to 750 mg of ASA by inhalation (placebo n=10, ASA n=28).

[2] = tested on: influenza virus infection; conditions: for Time to alleviation of clinical influenza symptoms (T1), Mean: 800 mg LASAG (400 mg ASA) inhaled three times daily
[3] = in vivo

With `CC(=O)Oc1ccccc1C(=O)O` [ASA, acetylsalicylic acid] the “Serious events or severe adverse effects” value ([1]; single inhaled doses up to 750 mg ASA) was “no serious events or severe adverse effects were observed”, the “Tolerability of administered doses” value ([1]; single inhaled doses up to 750 mg ASA as LASAG solution about 200 mg/ml, AKITA Apixneb) was “overall well tolerated” and the “Effect on pulmonary function tests parameters” value ([1]; single inhaled doses up to 750 mg ASA, higher doses) was “no effect on pulmonary function tests parameters”.
In the case of `CC(=O)Oc1ccccc1C(=O)O` [LASAG, D,L-lysine acetylsalicylate glycine salt], the “Time to alleviation of clinical influenza symptoms (T1), Max.” value ([2]; CSS ≥14, per protocol set) is reported as 67.4 h, the “Time to alleviation of clinical influenza symptoms (T1), Min.” value ([2]; CSS ≥14, per protocol set) is reported as 9.8 h and the “Time to alleviation of clinical influenza symptoms (T1), Q1” value ([2]; CSS ≥14, per protocol set) is reported as 23.5 h. For the same molecule, the “Time to alleviation of clinical influenza symptoms (T1), Q3” value ([2]; CSS ≥14, per protocol set) was 52.4 h, the “Time to alleviation of clinical influenza symptoms (T1), Mean” value ([2]; CSS ≥14, per protocol set) was 38.3 h and the “Time to alleviation of clinical influenza symptoms (T1), Median” value ([2]; CSS ≥14, per protocol set, 800 mg LASAG inhaled three times daily) was 27.8 h. For the same molecule, the “Time to alleviation of clinical influenza symptoms (T1), Max.” value ([2]; CSS ≥17, per protocol set) was 66.9 h, the “Time to alleviation of clinical influenza symptoms (T1), Median” value ([2]; CSS ≥17, per protocol set) was 47.0 h and the “Time to alleviation of clinical influenza symptoms (T1), Min.” value ([2]; CSS ≥17, per protocol set) was 23.5 h. For the same molecule, the “Time to alleviation of clinical influenza symptoms (T1), Q1” value ([2]; CSS ≥17, per protocol set) was 27.8 h, the “Time to alleviation of clinical influenza symptoms (T1), Q3” value ([2]; CSS ≥17, per protocol set) was 62.1 h and the “Time to alleviation of clinical influenza symptoms (T1), Mean” value ([2]; CSS ≥17, per protocol set) was 44.7 h. The “Time to alleviation of influenza symptoms T1” value ([2]; first patient group with CSS (log rank p 0.0313), placebo 51.6 h) was 38.3 h, the “Difference to placebo in time required for alleviation of clinical influenza symptoms” value ([2]; human, in vivo) was “no significant difference” and the “Recovery by baseline corrected daily activity score (DAS)” value ([2]; human, in vivo) was “better recovery than the placebo group”. For the same molecule, the “Number of inhalations after which patients were alleviated” value ([2]; patients with CSS, assuming start with the morning inhalation, placebo about 9) was “about 6 inhalations”, the “Time to alleviation of influenza symptoms T1” value ([2]; second patient group with CSS (log rank p 0.0152), placebo 71.5 h) was 44.7 h and the “Number of adverse events (AE)” value ([3]; human) was 41. The “Number of patients affected by AE” value ([3]; human) was 23, the “Required medication due to AEs” value ([3]; human) was “About 56.1%” and the “Share of all adverse events (AE)” value ([3]; human) was 49.4%. For the same molecule, the “Share of group patients affected by AE” value ([3]; human) was 41.1%, the “Death or other significant adverse events” value [3] was “no case of death or other significant adverse events” and the “Difference to placebo with regard to tolerability” value [3] was “no significant differences”.
